A short description of data set [1]: Neutral red (NR) cytotoxicity assay. It counts as cell-based, human. Particulars: human, HaCaT immortalized keratinocytes, 50 µM, 24 h, NR assay. As for the experimental part:
(§1) After 24 h exposure to drugs, assay was performed as described.

In data set [2] the test system is BJ normal fibroblasts. Briefly: Neutral red (NR) cytotoxicity assay. It counts as cell-based, human. Particulars: for IC50: 24 h treatment, AAT Bioquest IC50 calculator. Here is the method:
as §1

For data set [3], the system named is HaCaT immortalized keratinocytes. The experiment in a line: Neutral red (NR) cytotoxicity assay. It counts as cell-based, human. Particulars: for IC50: 24 h treatment, NR assay, AAT Bioquest IC50 calculator. Here is the method:
as §1

In data set [4] the test system is BJ normal fibroblasts. The experiment in a line: Caspase 3/7 activity (apoptosis). As to conditions: 24 h. It counts as cell-based, human. Here is the method: (§2) As an apoptosis marker, Caspase 3/7 activity was measured with Apo-ONE® Homogenous Caspase-3/7 Assay (Promega). The fluorescence as determinant of caspase-3/7 activity was read at 485/535 nm using Tecan Infinite M200 PRO Multimode Microplate Reader (TECAN Group Ltd., Männedorf, Switzerland) and results were adjusted relatively to the number of cells per well (the number of cells was determined by fluorescence measurement after DAPI staining).

Data set [5] relates to HaCaT immortalized keratinocytes. The experiment in a line: Caspase 3/7 activity (apoptosis). It counts as cell-based, human. As to conditions: 24 h. Here is the method: as §2
Data set [6] has as its system BJ normal fibroblasts. The experiment in a line: Intracellular ATP level (CellTiter-Glo). It counts as cell-based, human. Particulars: 24 h. Here is the method:
(§3) Intracellular level of ATP was estimated with commercially available bioluminescent CellTiter-Glo® Assay kit from Promega, which was prepared according to manufacturer’s protocol and added to cells (100 μL/well). After 10 min incubation at RT the luminescence was measured using the Infinite M200 PRO Multimode Microplate Reader (TECAN Group Ltd., Männedorf, Switzerland) against blank (wells with the CellTiter-Glo® reagent only). The luminescence signal was proportional to ATP level. At the same time a parallel assay was performed, and cells were labeled with […] DAPI (as described above in proliferation assay). Using calibration curve, the DAPI fluorescence signal was used to estimate the number of cells in each well and to calculate luminescence signal intensity from ATP per one cell. The results were expressed as % of the control (non-treated cells).
For orientation: Cellular ATP, detected with luciferase, serves as a proxy for viable cell number.

In data set [7] the test system is HaCaT immortalized keratinocytes. The experiment in a line: Intracellular ATP level (CellTiter-Glo). It counts as cell-based, human. As to conditions: 24 h. Here is the method: as §3
For data set [8], the system named is BJ normal fibroblasts. Briefly: Migration (scratch) assay. It counts as cell-based, human. As to conditions: 12 h. As for the experimental part: (§4) Cells were seeded in 24-well plates at 1.5 × 10^5 cells/well in 600 µL culture medium and incubated at 37 °C for 24 h to obtain full confluence. Afterwards, cells were scraped with a sterile 200 µL pipette tips and debris was removed. […] Medium with lowered 2% FBS was used to inhibit cell division. […] Assay was performed as described. The results were expressed as % of scraped area closure estimated as ratio of area measured before and after treatment with drugs.

In data set [9] the test system is HaCaT immortalized keratinocytes. The experiment in a line: Migration (scratch) assay. It counts as cell-based, human. Here is the method: as §4
Data set [10] is described as follows: In vivo toxicity, C. elegans survival. As to conditions: N2, Caenorhabditis elegans, in vivo, other: exposure in complete S medium in 96-well plate, 7 days incubation, read-out: viability (living individuals). Here is the method:
(§5) Nematodes wild-type culture (strain N2) was maintained at 20 °C on NGM agar plates with bacteria Escherichia coli OP50 as food source. C. elegans culture was synchronized by treatment with hypochlorite. Obtained eggs were left in M9 buffer at room temperature to hatch until the following day. The next day L1 worms were placed on NGM plates with E. coli OP50 and left at 20 °C until reaching L4 stage (approximately 44 h). L4 worms were transferred to 15 mL falcons by washing NGM plates twice with 5 mL water and centrifuged at 1500 rpm for 3–4 min. Then supernatant was aspirated. Pellet was re-suspended with 5 mL of complete S medium followed by centrifugation. Subsequently the density of nematodes suspension was assessed according to Scanlan et al.. Worms were suspended in complete S medium with E. coli OP50 (1:1000), 0.08% cholesterol (5 mg/mL in Et-OH), 1% penicillin-streptomycin, 1% nystatin, and 100 mM FUdR (at final concentration 200 µM) to obtain 20 nematodes in 50 μL. FUdR was added to sterilize nematodes. After that worms were transferred to 96-well plate. The working solutions of tested drugs were prepared in the complete S medium with 0.1% DMSO and placed into a 96-well plate with previously seeded worms. Then, worms were incubated at 21 °C for 7 days. Live (moving and curling) and dead nematodes were counted every day with an inverted microscope with contrast phase (Delta Optical IB-100). Images of treated C. elegans were also collected. The assay was performed in triplicates in three independent experiments.
(§6) To analyze differences in nematode viability incubated with the respective concentrations of the compounds, the Kaplan–Meier estimator was used. Statistically significant differences between the control and treated groups were determined with Gehan’s Wilcoxon test. Statistically significant differences in body size between the control and treated groups were determined using a Kruskal–Wallis. p < 0.05 was considered statistically significant. All analyses and calculations were performed using Statistica 13.3 software (StatSoft, Cracow, Poland).

Data set [11] deals with C. elegans. Briefly: In vivo toxicity, C. elegans survival. Particulars: for concentration at which toxic: 7 days incubation, tested 25–400 µM; for effect on the entire nematode organism: up to 100 µM, up to 4th day of incubation. Here is the method: as §5, §6
In data set [12] the test system is C. elegans. The experiment in a line: In vivo toxicity, C. elegans body length. On the set-up: species or system Caenorhabditis elegans. Here is the method:
as §5, §6

Another data set deals with glioma stem cells GSC. On the set-up: method as in PMID 18509487. Particulars: mouse model of malignant glioma; cited from earlier work.
A further data set deals with A172 glioma cells. Also on record: method as in PMID 37574500. As to conditions: A172, 24 h incubation; cited from earlier work.
The next data set has as its system U87 glioma. Also on record: method as in PMID 33941107. As to conditions: cited from earlier work.
Data set [13] relates to BJ normal fibroblasts. The experiment in a line: Proliferation assay (DAPI, 72 h). It counts as cell-based, human. Here is the method: Cells were seeded into 96-well, clear microplates at density 4 × 10^3 cells/well and incubated 24 h at 37 °C to attach. […] DMSO concentration was adjusted to 0.1% in all samples. The plates were placed for 72 h in incubator. Then, cells were washed with PBS and fixed in 3.7% formaldehyde solution in PBS for 15 min at RT, again washed with PBS and nuclei were staining with 600 nM DAPI solution in PBS (100 µL/well, 1 h). The fluorescent signal, proportional to the number of cells, was measured in Tecan Infinite M200 PRO Mulitmode Microplate Reader (TECAN Group Ltd., Männedorf, Switzerland) at 360 nm/460 nm. The results were expressed as % of the 0.1% DMSO treated control.

The next data set concerns PPARγ in BJ cells. Briefly: PPARγ level, Western blot. It counts as cell-based, human. Particulars: non-toxic concentration (12.5 µM), 24 h. A general note: In western blotting, separated proteins are transferred to a membrane and probed.
The target of another data set is PPARγ. On the set-up: method as in PMID 11684010. As to conditions: cited from earlier work.

Results on five compounds are retold here after paper PMC10970558 (International Journal of Molecular Sciences, 2024).

“And” between values parts separate entries of the source, which are not always exact repeats. Equal values may be shown once. Read-outs that look alike come from different tables or passages of the source.

On to `Cc1ccc(-c2cc(C(F)(F)F)nn2-c2ccc(S(N)(=O)=O)cc2)cc1` [CXB, celecoxib], for which, in data set [1], the viability (in general, a per cent measure of how many cells are alive, often set against a control) at 24 h, 50 µM is approximately 65%. The half-inhibitory concentration (IC50) – broadly, the point on the concentration scale where inhibition reaches its midpoint – was 77.6 µM in the data set on BJ normal fibroblasts [2] (Homo sapiens, Fibroblast); 59.5 µM in data set [3] (Homo sapiens, read-out: IC50); 60 µM in the data set with glioma stem cells GSC. The “concentration from which caspase 3/7 activity increased / apoptosis induced” value (in the data set with BJ normal fibroblasts [4]; in data set [5]) was not below 50 µM each time. The “concentration at which intracellular ATP level increased” value is 25 µM with BJ normal fibroblasts [6]; 25 µM and 50 µM in [7]. The “concentration from which migration was reduced” value (in the data set with BJ normal fibroblasts [8]; in data set [9] (24 h)) was not below 50 µM each time. Also, in [10] (200 µM), the viability at 7 days, 200 µM is 60%. In addition, in data set [10] (400 µM), the viability at 7 days, 400 µM turned out to be 73%. In addition, the “concentration at which lifespan was significantly shortened” value in the data set on C. elegans [11] (7-day treatment) is 25 to 400 µM. Moreover, the “concentration at which toxic” value in the data set on C. elegans [11] is given as 25 µM. Moreover, in the data set on C. elegans [11], the “effect on the entire nematode organism” value is given as “no significant effect”. The “reduction of body length” value with C. elegans [12] (200 µM, 7 days) stood at 25%. Besides, the “concentration at which body length was significantly shortened” value in the data set with C. elegans [12] (7-day treatment) was 50 to 400 µM. Also, the “body length versus control group” value with C. elegans [12] (50 and 400 µM, 7 days) is on record as “more than twice as short”. Further, the “concentration from which cells were significantly destroyed via apoptosis” value in the data set on A172 glioma cells was not below 25 µM.

As for `Cc1c(C)c2c(c(C)c1O)CCC(C)(COc1ccc(CC3SC(=O)NC3=O)cc1)O2` (centres unmarked) [troglitazone], the “concentration inhibiting growth of U87 glioma tumors, colony formation and migration” value with U87 glioma is on record as 20 µM.

Consider `CC(C)C[C@H](NC(=O)OCC1c2ccccc2-c2ccccc21)C(=O)O` [FL, Fmoc-L-Leucine], for which the viability result in the data set on BJ normal fibroblasts [2] (100 µM, 24 h) was “about 70%”. Besides, the IC50 in the data set with BJ normal fibroblasts [2] is 400 µM. Moreover, in data set [3], the IC50 entry is “≫”. Also, in [3] (up to the highest (100 µM) concentration), the sensitivity of cells result is recorded as “not sensitive”. Also, the “concentration at which cell division was inhibited” value with BJ normal fibroblasts [13] came to 100 µM. In addition, in the data set with BJ normal fibroblasts [4], the “concentration from which caspase 3/7 activity increased / apoptosis induced” value is not below 50 µM. Also, in data set [5], the “change of caspase 3/7 activity level” value was “reduced”. The “concentration at which intracellular ATP level decreased” value with BJ normal fibroblasts [6] turned out to be 100 µM. Also, the “concentration at which intracellular ATP level increased” value in data set [7] was 100 µM. In addition, in the data set with BJ normal fibroblasts [8], the “concentration from which migration was reduced” value is listed as not below 50 µM. Further, the effect on migration entry in data set [9] (entire range of concentrations used (25–100 µM)) is given as “did not affect”. The “increase of PPARγ level” value with PPARγ in BJ cells is 55% and 50%. Also, in the data set with C. elegans [11], the “concentration at which toxic” value came to 400 µM and the “effect on the entire nematode organism” value is reported as “no significant effect”. In the data set on C. elegans [12] (7 days), the “change in nematode body length” value was “did not significantly affect”. Moreover, the Ki (as a rule, a measure of affinity in units of concentration, obtained from inhibition or displacement) at PPARγ is 15 µM.

For the compound `COC(=O)Nc1nc2ccc(C(=O)c3ccccc3)cc2[nH]1` [mebendazole], inhibition in the data set on C. elegans [11] (Caenorhabditis elegans, data from our studies) was half-maximal at 4 µM (IC50).

As to `CC1(COc2ccc(CC3SC(=O)NC3=O)cc2)CCCCC1` (centres unmarked) [Ciglitazone], the “concentration inhibiting growth of U87 glioma tumors, colony formation and migration” value in the data set with U87 glioma is reported as 20 µM.
